# Source: ChEMBL document CHEMBL1155183, “Synthesis and SAR of 1,4,5,6-tetrahydropyridazines as potent cannabinoid CB1 receptor antagonists” (Bioorg Med Chem Lett, 2009)
# Experiments:
# [1] = biological target: T1, Cannabinoid receptor 1 (Homo sapiens, UniProt P21554); assay: Antagonist activity at human CB1 receptor expressed in CHO cells assessed as inhibition of CP-55940-induced [3H]arachidonic acid release; assay type: functional, cell-based; settings: read-out: pA2 (converted)
# [2] = biological target: Cannabinoid receptor 2 (Homo sapiens, UniProt P34972); assay: Displacement of [3H]CP-55940 from human CB2 receptor expressed in CHO cells; assay type: cell-based
# Chain of Cannabinoid receptor 2 (P34972 whole entry): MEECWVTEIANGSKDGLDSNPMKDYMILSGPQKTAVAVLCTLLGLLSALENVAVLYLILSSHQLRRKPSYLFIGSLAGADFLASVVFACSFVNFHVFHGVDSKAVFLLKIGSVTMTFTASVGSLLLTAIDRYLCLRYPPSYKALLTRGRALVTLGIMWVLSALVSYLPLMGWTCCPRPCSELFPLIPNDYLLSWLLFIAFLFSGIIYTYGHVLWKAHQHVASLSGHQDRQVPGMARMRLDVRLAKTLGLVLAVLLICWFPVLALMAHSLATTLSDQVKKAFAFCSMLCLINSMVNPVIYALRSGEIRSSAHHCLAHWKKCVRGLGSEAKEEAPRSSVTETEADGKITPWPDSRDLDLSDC
# [3] = biological target: T1, Cannabinoid receptor 1; assay: Displacement of [3H]CP-55940 from human CB1 receptor expressed in CHO cells; assay type: cell-based
# [4] = species on record: Homo sapiens; assay: Selectivity ratio of Ki for human CB1 receptor to Ki for human CB2 receptor
# T1 sequence (P21554 whole entry): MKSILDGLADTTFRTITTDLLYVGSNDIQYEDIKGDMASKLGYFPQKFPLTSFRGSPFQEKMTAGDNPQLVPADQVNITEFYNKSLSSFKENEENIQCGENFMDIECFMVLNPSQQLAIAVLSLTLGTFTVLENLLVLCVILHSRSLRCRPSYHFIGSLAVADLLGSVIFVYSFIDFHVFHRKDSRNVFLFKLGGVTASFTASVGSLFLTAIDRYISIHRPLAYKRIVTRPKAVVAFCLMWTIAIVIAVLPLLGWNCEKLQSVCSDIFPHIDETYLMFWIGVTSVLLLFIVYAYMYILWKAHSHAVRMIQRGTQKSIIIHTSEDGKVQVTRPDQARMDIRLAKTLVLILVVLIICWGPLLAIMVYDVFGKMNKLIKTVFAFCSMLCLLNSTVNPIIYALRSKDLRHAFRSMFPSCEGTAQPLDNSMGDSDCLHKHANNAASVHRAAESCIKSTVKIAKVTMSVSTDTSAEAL
Kb [1],Ki [2],Ki [3],Ratio Ki [4],SMILES
1 nM,247 nM,47 nM,,CNC(=NS(=O)(=O)N1CCC(F)(F)CC1)N1CCC(c2ccccc2)C(c2ccc(Cl)cc2)=N1 (stereo not given)
0.631 nM,219 nM,12.2 nM,,CN=C(NS(=O)(=O)N1CCC(F)(F)CC1)N1CC(c2ccccc2)C(c2ccc(Cl)cc2)=N1 (stereo not given)
,,,5,CN/C(=N\S(=O)(=O)N1CCC(F)(F)CC1)N1CCC(c2ccccc2)C(c2ccc(Cl)cc2)=N1 (stereo not given)
,,,5,CN/C(=N\S(=O)(=O)N1CCCCC1)N1CCC(c2ccccc2)C(c2ccc(Cl)cc2)=N1 (stereo not given)

# The remaining lines, values behind:
SMILES,Kb [1],Ki [2],Ki [3],Ratio Ki [4]
CNC(=NS(=O)(=O)N1CCCCC1)N1CCC(c2ccccc2)C(c2ccc(Cl)cc2)=N1 (stereo not given),2 nM,571 nM,74 nM,
CN/C(=N\S(=O)(=O)c1ccc(Cl)cc1)N1CCC(c2ccccc2)C(c2ccc(Cl)cc2)=N1 (stereo not given),1 nM,318 nM,43 nM,5
